Data reported in the NIST ThermoML archive (doi:10.1016/j.jct.2018.10.012).
Numbers after ± are expanded uncertainties.

Conditions: Liquid; for viscosity / mass density: 101.33 kPa; for viscosity: Capillary tube (Ostwald / Ubbelohde) method; for mass density: Pycnometric method; for vapor or sublimation pressure: Ebulliometric method (Recirculating still)

CCCCCCCCCCCCCCCCCC(=O)OCC(CC)CCCC (stereo unspecified) [2-ethylhexyl stearate]
Conditions	mass density [kg/m3]	vapor or sublimation pressure [kPa]	viscosity [mPa·s]
298.15 K	855.4 ± 0.9	–	15.04 ± 0.61
303.15 K	851.4 ± 0.9	–	12.55 ± 0.51
308.15 K	847.9 ± 0.9	–	10.62 ± 0.43
313.15 K	844.9 ± 0.9	–	9.06 ± 0.37
318.15 K	841.1 ± 0.9	–	7.84 ± 0.32
323.15 K	837.7 ± 0.9	–	6.81 ± 0.28
328.15 K	834.4 ± 0.9	–	6.04 ± 0.25
333.15 K	831.1 ± 0.9	–	5.34 ± 0.22
338.15 K	827.8 ± 0.9	–	4.79 ± 0.19
343.15 K	824.5 ± 0.9	–	4.36 ± 0.18
348.15 K	821.1 ± 0.9	–	3.92 ± 0.16
353.15 K	817.2 ± 0.9	–	3.58 ± 0.15
358.15 K	814.2 ± 0.9	–	3.27 ± 0.13
363.15 K	811.2 ± 0.9	–	3.02 ± 0.12
368.15 K	808 ± 0.9	–	2.8 ± 0.11
477.05 K	–	0.213 ± 0.029	–
479.65 K	–	0.253 ± 0.029	–
482.25 K	–	0.28 ± 0.029	–
483.45 K	–	0.307 ± 0.029	–
485.25 K	–	0.333 ± 0.029	–
487.55 K	–	0.373 ± 0.029	–
488.85 K	–	0.4 ± 0.029	–
491.25 K	–	0.44 ± 0.029	–
493.25 K	–	0.493 ± 0.029	–
495.25 K	–	0.547 ± 0.029	–
496.25 K	–	0.573 ± 0.029	–
498.05 K	–	0.613 ± 0.029	–

CCCCCCCCCCCCCCCC(=O)OC [methyl hexadecanoate]
Conditions	vapor or sublimation pressure [kPa]
419.15 K	0.213 ± 0.029
423.15 K	0.279 ± 0.029
425.25 K	0.306 ± 0.029
428.35 K	0.346 ± 0.029
430.75 K	0.399 ± 0.029
432.25 K	0.425 ± 0.029
433.35 K	0.452 ± 0.029
436.25 K	0.532 ± 0.029
438.45 K	0.585 ± 0.029
440.15 K	0.624 ± 0.029
442.35 K	0.705 ± 0.029
444.15 K	0.771 ± 0.029

CCCCCCCCCCCCCCCC(=O)OCC(CC)CCCC (stereo unspecified) [2-ethylhexyl palmitate]
Conditions	mass density [kg/m3]	vapor or sublimation pressure [kPa]	viscosity [mPa·s]
298.15 K	855.1 ± 0.9	–	11.78 ± 0.48
303.15 K	851 ± 0.9	–	10.01 ± 0.41
308.15 K	847.9 ± 0.9	–	8.28 ± 0.34
313.15 K	844.5 ± 0.9	–	7.16 ± 0.29
318.15 K	840.9 ± 0.9	–	6.26 ± 0.25
323.15 K	837.4 ± 0.9	–	5.64 ± 0.23
328.15 K	834 ± 0.9	–	4.94 ± 0.2
333.15 K	830.3 ± 0.9	–	4.41 ± 0.18
338.15 K	826.7 ± 0.9	–	3.94 ± 0.16
343.15 K	823.3 ± 0.9	–	3.55 ± 0.14
348.15 K	820.1 ± 0.9	–	3.24 ± 0.13
353.15 K	816.8 ± 0.9	–	2.94 ± 0.12
358.15 K	813.2 ± 0.9	–	2.71 ± 0.11
363.15 K	810 ± 0.9	–	2.49 ± 0.1
368.15 K	806.9 ± 0.9	–	2.29 ± 0.09
476.95 K	–	0.307 ± 0.029	–
479.35 K	–	0.333 ± 0.029	–
482.35 K	–	0.387 ± 0.029	–
484.95 K	–	0.427 ± 0.029	–
488.05 K	–	0.493 ± 0.029	–
490.35 K	–	0.547 ± 0.029	–
491.45 K	–	0.573 ± 0.029	–
493.85 K	–	0.627 ± 0.029	–
496.05 K	–	0.68 ± 0.029	–
497.35 K	–	0.733 ± 0.029	–
499.35 K	–	0.8 ± 0.029	–
500.85 K	–	0.853 ± 0.029	–
